Laboratory results published in publication PMC11345830, “Exploration of Hydrazide-Based HDAC8 PROTACs for the Treatment of Hematological Malignancies and Solid Tumors” (Journal of Medicinal Chemistry, 2024).

Experiments:
Type in all cases: cell-based
HCT116 cells = test: Lipid peroxidation detection (BODIPY 581/591 C11), HCT116; settings: 24 h, low micromolar concentrations
Method: Jurkat cells (5 × 10^5), HCT116 cells (3 × 10^5) and THP-1 cells (5 × 10^5) were seeded on 6-well plates. The next day, cells were treated with indicated concentrations of compounds for 24 or 48 h. Then, cells were stained with 1.3 μM of BODIPY 581/591 C11 (Invitrogen, D3861) for another 1 h at 37 °C. Later, cells were harvested and washed three times with ice-cold PBS, followed by resuspended in FACS buffer (1% BSA in PBS). Lipid peroxidation was determined by NovoCyte Quanteon Flow Cytometer (Agilent Technologies, CA, USA).

GSPT1 = target: T1, GSPT1 (Homo sapiens, UniProt P15170); test: GSPT1 level in Jurkat cells, Western blot; settings: 6 h
T1 construct: endogenous in cells; host or cells: Jurkat

HDAC6 = target: T2, HDAC6 (Homo sapiens, UniProt Q9UBN7); test: HDAC6 level in HCT116 cells, Western blot; set-up: endogenous in cells; host or cells: HCT116; settings: 6 h
T2 sequence (Q9UBN7 1-1215): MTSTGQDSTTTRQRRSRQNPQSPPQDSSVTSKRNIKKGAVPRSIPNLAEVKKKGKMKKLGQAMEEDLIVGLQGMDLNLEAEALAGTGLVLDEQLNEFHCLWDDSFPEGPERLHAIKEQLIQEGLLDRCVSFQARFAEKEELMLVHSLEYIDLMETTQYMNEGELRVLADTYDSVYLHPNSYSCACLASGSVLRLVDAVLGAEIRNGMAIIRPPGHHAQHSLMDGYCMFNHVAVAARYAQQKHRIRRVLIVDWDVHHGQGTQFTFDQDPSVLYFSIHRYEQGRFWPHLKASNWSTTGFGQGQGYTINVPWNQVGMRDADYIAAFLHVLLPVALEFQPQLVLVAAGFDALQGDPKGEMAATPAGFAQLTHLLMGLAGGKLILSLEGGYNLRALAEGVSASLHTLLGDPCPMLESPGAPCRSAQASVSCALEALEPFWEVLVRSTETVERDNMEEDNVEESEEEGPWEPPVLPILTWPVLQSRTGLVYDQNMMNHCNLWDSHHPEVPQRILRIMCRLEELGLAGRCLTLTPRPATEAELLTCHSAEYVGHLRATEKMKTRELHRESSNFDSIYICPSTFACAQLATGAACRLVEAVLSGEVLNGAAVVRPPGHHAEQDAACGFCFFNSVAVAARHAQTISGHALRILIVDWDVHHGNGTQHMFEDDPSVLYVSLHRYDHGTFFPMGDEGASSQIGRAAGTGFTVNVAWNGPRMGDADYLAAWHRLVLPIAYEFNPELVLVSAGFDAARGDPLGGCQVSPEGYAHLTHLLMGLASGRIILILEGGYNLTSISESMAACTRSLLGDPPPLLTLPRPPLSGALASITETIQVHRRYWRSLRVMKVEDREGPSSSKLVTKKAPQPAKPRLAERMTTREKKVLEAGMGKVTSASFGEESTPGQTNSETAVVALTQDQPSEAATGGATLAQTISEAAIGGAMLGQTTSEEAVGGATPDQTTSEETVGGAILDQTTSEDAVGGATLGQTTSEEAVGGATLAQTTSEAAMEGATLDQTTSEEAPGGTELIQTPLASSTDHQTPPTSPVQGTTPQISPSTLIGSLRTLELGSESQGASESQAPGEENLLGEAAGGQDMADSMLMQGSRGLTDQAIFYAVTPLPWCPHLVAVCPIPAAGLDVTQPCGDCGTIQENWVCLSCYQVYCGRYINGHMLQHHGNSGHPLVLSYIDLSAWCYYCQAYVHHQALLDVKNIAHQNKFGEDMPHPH

HDAC4 = target: T3, HDAC4 (Homo sapiens, UniProt P56524); test: HDAC4 level in Jurkat cells, Western blot; settings: 6 h
T3 construct: endogenous in cells; host or cells: Jurkat

HDAC11 = target: T4, HDAC11 (Homo sapiens, UniProt Q96DB2); test: HDAC11 level in Jurkat cells, Western blot; settings: 6 h
T4 construct: endogenous in cells; host or cells: Jurkat
T4 sequence (Q96DB2 1-347): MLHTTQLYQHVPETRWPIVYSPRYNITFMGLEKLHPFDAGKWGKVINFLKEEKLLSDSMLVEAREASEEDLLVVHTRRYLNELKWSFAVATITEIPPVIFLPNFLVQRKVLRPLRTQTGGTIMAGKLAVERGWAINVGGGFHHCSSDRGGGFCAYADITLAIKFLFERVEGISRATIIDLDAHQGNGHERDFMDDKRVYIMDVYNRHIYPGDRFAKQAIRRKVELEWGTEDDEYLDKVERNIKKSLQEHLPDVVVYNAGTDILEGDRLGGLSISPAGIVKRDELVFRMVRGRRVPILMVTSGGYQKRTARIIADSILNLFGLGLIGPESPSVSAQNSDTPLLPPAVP

HDAC7 = target: T5, HDAC7 (Homo sapiens, UniProt Q8WUI4); test: HDAC7 level in Jurkat cells, Western blot; settings: 6 h
T5 construct: endogenous in cells; host or cells: Jurkat
T5 sequence (Q8WUI4 1-952): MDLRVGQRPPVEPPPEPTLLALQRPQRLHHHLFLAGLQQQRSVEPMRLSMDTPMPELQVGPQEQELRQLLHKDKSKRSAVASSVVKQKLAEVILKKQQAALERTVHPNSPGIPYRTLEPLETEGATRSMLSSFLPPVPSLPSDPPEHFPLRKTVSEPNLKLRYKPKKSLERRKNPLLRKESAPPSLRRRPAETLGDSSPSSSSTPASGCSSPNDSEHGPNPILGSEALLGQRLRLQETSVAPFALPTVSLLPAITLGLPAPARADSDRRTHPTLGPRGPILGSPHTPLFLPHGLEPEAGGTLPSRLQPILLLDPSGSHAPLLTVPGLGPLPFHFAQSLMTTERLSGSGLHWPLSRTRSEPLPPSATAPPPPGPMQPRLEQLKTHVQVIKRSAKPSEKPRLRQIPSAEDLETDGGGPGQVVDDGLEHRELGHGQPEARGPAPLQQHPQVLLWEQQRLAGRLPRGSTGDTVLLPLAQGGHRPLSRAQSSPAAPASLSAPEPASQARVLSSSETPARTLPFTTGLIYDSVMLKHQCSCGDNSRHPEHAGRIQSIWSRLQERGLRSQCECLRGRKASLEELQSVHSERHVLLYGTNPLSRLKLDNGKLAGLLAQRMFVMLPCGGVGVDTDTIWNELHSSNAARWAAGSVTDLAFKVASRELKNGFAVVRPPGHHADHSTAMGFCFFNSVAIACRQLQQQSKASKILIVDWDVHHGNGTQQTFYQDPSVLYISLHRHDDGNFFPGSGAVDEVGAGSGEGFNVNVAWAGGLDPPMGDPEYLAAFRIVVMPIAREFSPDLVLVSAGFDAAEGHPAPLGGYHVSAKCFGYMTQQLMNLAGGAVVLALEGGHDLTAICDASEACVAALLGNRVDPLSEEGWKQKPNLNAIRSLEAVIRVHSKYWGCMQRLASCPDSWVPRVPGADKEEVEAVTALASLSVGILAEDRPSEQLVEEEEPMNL

[1] = test system: acetyl-histone H3 (Ac-HH3); test: Ac-HH3 level in HCT116 cells, Western blot; settings: 6 h

T3 sequence (P56524 whole entry): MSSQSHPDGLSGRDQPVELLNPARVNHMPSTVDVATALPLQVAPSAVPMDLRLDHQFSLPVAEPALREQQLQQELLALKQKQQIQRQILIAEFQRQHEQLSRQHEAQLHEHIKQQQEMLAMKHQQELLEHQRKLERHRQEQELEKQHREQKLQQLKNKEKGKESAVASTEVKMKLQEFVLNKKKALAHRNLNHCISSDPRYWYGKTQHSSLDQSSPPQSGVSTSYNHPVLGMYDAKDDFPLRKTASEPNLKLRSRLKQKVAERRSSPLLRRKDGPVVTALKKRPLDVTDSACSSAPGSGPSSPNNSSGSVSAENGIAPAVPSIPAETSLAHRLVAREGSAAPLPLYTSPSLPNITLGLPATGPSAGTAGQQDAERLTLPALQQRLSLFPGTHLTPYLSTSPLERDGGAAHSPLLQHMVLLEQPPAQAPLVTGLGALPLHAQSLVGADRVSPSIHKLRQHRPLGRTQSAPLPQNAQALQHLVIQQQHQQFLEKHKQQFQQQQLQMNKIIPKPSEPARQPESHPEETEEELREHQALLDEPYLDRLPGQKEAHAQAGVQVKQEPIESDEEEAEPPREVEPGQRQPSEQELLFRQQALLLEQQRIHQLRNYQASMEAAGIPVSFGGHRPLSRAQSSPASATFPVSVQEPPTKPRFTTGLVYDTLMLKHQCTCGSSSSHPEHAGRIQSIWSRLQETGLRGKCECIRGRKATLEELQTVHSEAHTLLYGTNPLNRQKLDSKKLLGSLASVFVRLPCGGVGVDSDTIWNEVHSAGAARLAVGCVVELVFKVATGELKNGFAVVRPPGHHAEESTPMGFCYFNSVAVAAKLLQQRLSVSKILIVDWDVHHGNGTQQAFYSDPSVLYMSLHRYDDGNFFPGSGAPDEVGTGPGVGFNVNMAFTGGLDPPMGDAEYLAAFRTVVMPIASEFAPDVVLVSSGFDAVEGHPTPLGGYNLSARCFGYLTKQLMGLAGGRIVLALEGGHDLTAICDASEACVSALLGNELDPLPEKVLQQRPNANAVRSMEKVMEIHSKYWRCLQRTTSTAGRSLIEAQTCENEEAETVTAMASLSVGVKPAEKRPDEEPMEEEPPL
T1 sequence (P15170 whole entry): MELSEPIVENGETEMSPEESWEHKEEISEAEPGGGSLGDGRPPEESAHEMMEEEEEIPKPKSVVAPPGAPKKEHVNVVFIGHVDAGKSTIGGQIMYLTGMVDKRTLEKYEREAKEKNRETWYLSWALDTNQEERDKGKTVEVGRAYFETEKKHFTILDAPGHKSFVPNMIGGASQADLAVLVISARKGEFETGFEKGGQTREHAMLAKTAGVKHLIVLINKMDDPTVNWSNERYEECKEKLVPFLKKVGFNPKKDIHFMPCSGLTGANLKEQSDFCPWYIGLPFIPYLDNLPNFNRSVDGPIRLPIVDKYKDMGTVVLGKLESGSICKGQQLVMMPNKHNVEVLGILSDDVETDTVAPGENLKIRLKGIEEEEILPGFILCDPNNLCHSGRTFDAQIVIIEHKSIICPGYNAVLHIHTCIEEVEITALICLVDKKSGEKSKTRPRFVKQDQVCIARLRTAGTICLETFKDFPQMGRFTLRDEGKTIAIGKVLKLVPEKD

CCCCCCNNC(=O)c1ccc(CNC(=O)CN2CCC(c3ccc(NC4CCC(=O)NC4=O)cc3)CC2)cc1 (stereo not shown) [Z16, 2-(4-(4-((2,6-Dioxopiperidin-3-yl)amino)phenyl)piperidin-1-yl)-N-(4-(2-hexylhydrazine-1-carbonyl)benzyl)acetamide]
lipid peroxidation (in words) (HCT116 cells): induced lipid peroxidation in a dose-dependent manner
intracellular level of GSPT1 (in words) (GSPT1): did not significantly affect
impact on HDAC6 (in words) (HDAC6): without significant impact
HDAC4 degradation (in words) (HDAC4): no obvious
HDAC11 degradation (in words) (HDAC11): no obvious
HDAC7 degradation (in words) (HDAC7): no obvious
concentration at which increased acetylation of histone H3 started [1]: 40 nM
